The values that follow come from ChEMBL document CHEMBL1136296, “3-cyanoindole-based inhibitors of inosine monophosphate dehydrogenase: synthesis and initial structure-activity relationships” (Bioorg Med Chem Lett, 2003).

Assay [1] concerns the target Inosine-5'-monophosphate dehydrogenase 2 (Homo sapiens, UniProt P12268). The assay can be described thus: Inhibitory activity tested against inosine-5'-monophosphate dehydrogenase 2 (IMPDH-II) enzyme.
For assay [2], the system named is CCRF-CEM. As to the kind of experiment: cells. Conditions: Homo sapiens.
Description: Inhibition of CEM (human leukemia) cell proliferation.

In general, IC50 refers to the concentration that inhibits the measured activity by half. A higher IC50 goes with lower potency. For `COc1cc(NC(=O)Nc2cccc(C)c2)ccc1C#N`, in assay [1], the IC50 is 290 nM. The same measure, in the same setting: the same measure for `CC(=O)OCC(=O)N(C)c1ccccc1-c1cnc(Nc2ccc3c(C#N)cn(C)c3c2)o1`: 266 nM; for `COc1cc(Nc2ncc(-c3ccccc3)o2)ccc1C#N`: 400 nM.

As for `CN(C)CCOC(=O)NCc1cccc(-c2cnc(Nc3ccc4c(C#N)cn(C)c4c3)o2)c1`, the IC50 was determined as 1400 nM in assay [2] and 210 nM in assay [1]. Taken in the same sequence, the figures for `Cn1cc(C#N)c2ccc(Nc3ncc(-c4cccc(CNC(=O)OCCC#N)c4)o3)cc21` were above 10000 nM and 240 nM.

As for `Cn1cc(C#N)c2ccc(Nc3ncc(-c4ccccc4CNC(=O)OC4CCOC4)o3)cc21` (configuration not stated), the IC50 in assay [2] was above 10000 nM; in assay [1], 420 nM. Taken in the same sequence, the figures for `Cc1cccc(-c2cnc(Nc3ccc4c(C#N)cn(C)c4c3)o2)c1` were above 10000 nM and 490 nM. `Cn1cc(C#N)c2ccc(Nc3ncc(-c4ccc(CN)cc4)o3)cc21`: the IC50 was 2800 nM in assay [2] and 260 nM in assay [1]. The matching figures for `Cn1cc(C#N)c2ccc(Nc3ncc(-c4cccc(CNC(=O)c5cccc6ccccc56)c4)o3)cc21`: 2500 nM and 84 nM. The molecule `Cc1cccc(NC(=O)Nc2ccc3c(C#N)cn(C)c3c2)c1` returned an IC50 in assay [1] of 670 nM. As for `Cn1cc(C#N)c2ccc(Nc3ncc(-c4ccccc4CNC(=O)OCCC#N)o3)cc21`, the figures for the IC50 in assay [2] and in assay [1] were above 10000 nM and 420 nM, respectively. In turn, `CC[C@H](CC#N)OC(=O)NCc1cccc(NC(=O)Nc2ccc(C#N)c(OC)c2)c1` had an IC50 in assay [1] of 6 nM. Still for that read-out and setting: the same measure for `Cc1ccccc1-c1cnc(Nc2ccc3c(C#N)cn(C)c3c2)o1`: 440 nM. Regarding `CC(=O)NCc1ccc(-c2cnc(Nc3ccc4c(C#N)cn(C)c4c3)o2)cc1`, the IC50 in assay [2] is above 10000 nM; in assay [1] it was 94 nM. Regarding `Cn1cc(C#N)c2ccc(Nc3ncc(-c4ccc(CNC(=O)C(C)(C)C)cc4)o3)cc21`, the 50% inhibitory concentration (IC50) worked out at 4900 nM in assay [2] and 180 nM in assay [1]. Consider `Cn1cc(C#N)c2ccc(Nc3ncc(-c4cccc(CNC(=O)c5ccc6ccccc6c5)c4)o3)cc21`, for which the IC50 in assay [2] was found to be 4400 nM; in assay [1], 40 nM. Take `Cn1cc(C#N)c2ccc(Nc3ncc(-c4ccc(CNC(=O)c5ccccc5)cc4)o3)cc21`: the IC50 was above 10000 nM in assay [2] and 100 nM in assay [1]. For the molecule `Cn1cc(C#N)c2ccc(Nc3ncc(-c4cccc(CN)c4)o3)cc21`, the IC50 in assay [2] is 3500 nM; in assay [1], 180 nM. Consider `Cc1ccc(NC(=O)Nc2ccc3c(C#N)cn(C)c3c2)cc1`, for which the IC50 in assay [1] amounted to 230 nM. As to `Cn1cc(C#N)c2ccc(Nc3ncc(-c4cccc(NC(=O)c5ccccc5)c4)o3)cc21`, the IC50 came to 3500 nM in assay [2] and 200 nM in assay [1].

On to `Cn1cc(C#N)c2ccc(Nc3ncc(-c4ccccc4)o3)cc21`, for which the IC50 was 8000 nM in assay [2] and 33 nM in assay [1]. With `Cc1ccc(-c2cnc(Nc3ccc4c(C#N)cn(C)c4c3)o2)cc1`, in assay [1], the half-maximal inhibitory concentration (IC50) is above 550 nM. The molecule `Cn1cc(C#N)c2ccc(NC(=O)Nc3ccccc3)cc21` came in with an IC50 in assay [1] of 630 nM. Consider `Cn1cc(C#N)c2ccc(Nc3ncc(-c4ccccc4CN)o3)cc21`, for which the values for the IC50 in assay [2] and in assay [1] were 1100 nM and 280 nM, respectively. The matching figures for `Cn1cc(C#N)c2ccc(Nc3ncc(-c4cccc(CNC(=O)OC5CCOC5)c4)o3)cc21` (configuration not stated): above 10000 nM and 260 nM. The matching figures for `Cn1cc(C#N)c2ccc(Nc3ncc(-c4cccc(CNC(=O)c5ccccc5)c4)o3)cc21`: 5300 nM and 130 nM.

For the molecule `COc1cc(Nc2ncc(-c3ccccc3)o2)ccc1-c1cnco1`, the IC50 in assay [1] was 16 nM. In assay [2], `COc1cc(Nc2ncc(-c3ccccc3N(C)C(=O)CN3CCOCC3)o2)ccc1-c1cnco1` displayed an IC50 of 520 nM.

As for `COc1cc(NC(=O)Nc2cccc(CNC(=O)O[C@H]3CCOC3)c2)ccc1-c1cnco1` [MERIMEPODIB], the values for the IC50 in assay [2] and in assay [1] were 490 nM and 11 nM, respectively.
